# pEC50: −log10 of the molar value. Structures can show the parent of a compound that is named as a salt. Where two headings read alike, the source gives them in different places.
# Molecular target: T1, GLP-1 receptor (Homo sapiens, UniProt P43220)
# T1 construct: expressed in transfected cells
# Experiment: HEK293/CRE-luc/GLP-1R cell luciferase reporter test (agonistic effect on GLP-1 receptor)
# Format: cell-based
# Conditions: HEK293/CRE-luc/GLP-1R cells
# Description: 1. HEK293/CRE-luc/GLP-1β cell viability
# Cell: HEK293/CRE-luc/GLP-1R
# Cell culture medium: DMEM+10% FBS+400 μg/ml G418+100 μg/ml Hygromycin B
# Frozen stock solution: 90% FBS, 10% (V/V) DMSO
# Detection buffer: DMEM+1% FBS
# Cells were cultured in DMEM medium+10% FBS+400 μg/ml G418+100 μg/ml Hygromycin B in a CO2 incubator at 37° C., and passaged once every 3-4 days.
# Cell plating: Trypsinization adjusted the cell density to 1.67×10^5 cells/mL; 60 μL of cells per well (10000 cells/well) was inoculated in a 384-well plate containing compounds; A NC well (negative control) and a background well (no cells) were set. Incubation was performed for about 18+2 h in the incubator.
# Compounds were serially diluted with the detection buffer, and the detection concentration was 0.01 nM-1000 nM.
# The cell culture plate was removed and all supernatant was aspirated from the cells. The cells were washed gently 2 times with 1×PBS.
# The diluted compound was added to a 384-well plate (10 μL/well), and three replicate wells were set for each concentration. 10 μL of the detection buffer was added to the NC well, sealed and incubated at 37° C. for 6 hours.
# The plate was removed, the cells were allowed to equilibrate to room temperature (at least 15 min), and then all supernatant was aspirated from the cells.
# Steady-Glo® Reagent was added to the sample well at 10 μL/well and incubated at room temperature for 5 min to lyse the cells.
# The test results were read with a BMG microplate reader.
# The mean background value was calculated.
# The induction factor (Fold of induction, FI)=(induction well value−background value)/(negative control well value −background value) was calculated.
# The EC50 value of the sample was calculated using Graphpad Prim 8.0 software using four-parameter fitting analysis.
# Mean and standard error (Mean±SEM) were calculated for all results and Graphpad Prism software was used for statistical analysis. Specific data were presented in the form of graphs. P<0.05 was considered to be statistically different.
# [1] = 6 hours incubation, class symbols, read-out: EC50
# [2] = bound stated, read-out: EC50 value
# T1 sequence (P43220 24-463): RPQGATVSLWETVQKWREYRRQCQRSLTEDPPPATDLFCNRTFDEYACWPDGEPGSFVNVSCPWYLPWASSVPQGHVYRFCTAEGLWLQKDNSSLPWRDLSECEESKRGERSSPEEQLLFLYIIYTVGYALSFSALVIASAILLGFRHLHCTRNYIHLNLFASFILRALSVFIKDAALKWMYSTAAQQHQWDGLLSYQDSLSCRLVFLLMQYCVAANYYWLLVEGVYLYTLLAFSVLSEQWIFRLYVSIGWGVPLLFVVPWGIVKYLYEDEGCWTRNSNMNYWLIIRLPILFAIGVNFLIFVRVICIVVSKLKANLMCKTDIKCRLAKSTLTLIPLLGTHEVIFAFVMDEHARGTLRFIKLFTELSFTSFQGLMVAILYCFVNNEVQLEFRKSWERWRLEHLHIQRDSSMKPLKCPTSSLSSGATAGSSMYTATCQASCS
pEC50 [1],pEC50 [2],SMILES
> 8.00,> 8.00,"N#Cc1ccc(COc2cccc(-c3cc(F)c(Cc4nc5sc(C(=O)O)cc5n4C[C@@H]4CCO4)cc3F)n2)cc1 [Compound 23, (S)-2-(4-(6-((4-cyanobenzyl)oxy)pyridin-2-yl)-2,5-difluorobenzyl)-1-(oxetan-2-ylmethyl)-1H-thieno[2,3-d]imidazole-5-carboxylic acid]"
> 8.00,> 8.00,"N#Cc1ccc(COc2nc(C3CCN(Cc4nc5sc(C(=O)O)cc5n4C[C@@H]4CCO4)CC3)ccc2F)c(F)c1 [Compound 17, (S)-2-((4-(6-((4-cyano-2-fluorobenzyl)oxy)-5-fluoropyridin-2-yl)piperidin-1-yl)methyl)-1-(oxetan-2-ylmethyl)-1H-thieno[2,3-d]imidazole-5-carboxylic acid]"
> 8.00,> 8.00,"CC1(c2ccc(Cl)cc2F)Oc2cccc(-c3ccc(Cc4nc5sc(C(=O)O)cc5n4C[C@@H]4CCO4)c(F)c3)c2O1 (stereo partly drawn) [Compound 10, 2-(4-(2-(4-chloro-2-fluorophenyl)-2-methylbenzo[d][1,3]dioxol-4-yl)-2-fluorobenzyl)-1-(((S)-oxetan-2-yl)methyl)-1H-thieno[2,3-d]imidazole-5-carboxylic acid]"
> 8.00,> 8.00,"N#Cc1ccc(COc2cccc(-c3ccc(Cc4nc5sc(C(=O)O)cc5n4C[C@@H]4CCO4)c(F)c3)n2)cc1 [Compound 20, (S)-2-(4-(6-((4-cyanobenzyl)oxy)pyridin-2-yl)-2-fluorobenzyl)-1-(oxetan-2-ylmethyl)-1H-thieno[2,3-d]imidazole-5-carboxylic acid]"
> 8.00,> 8.00,"N#Cc1ccc(COc2cccc(C3CCN(Cc4nc5sc(C(=O)O)cc5n4C[C@@H]4CCCO4)CC3)n2)c(F)c1 [Compound 12, (S)-2-((4-(6-((4-cyano-2-fluorobenzyl)oxy)pyridin-2-yl)piperidin-1-yl)methyl)-1-((tetrahydrofuran-2-yl)methyl)-1H-thieno[2,3-d]imidazole-5-carboxylic acid]"
> 8.00,> 8.00,"N#Cc1ccc(COc2cccc(N3CCN(Cc4nc5sc(C(=O)O)cc5n4C[C@@H]4CCO4)CC3)n2)c(F)c1 [Compound 13, (S)-2-((4-(6-((4-cyano-2-fluorobenzyl)oxy)pyridin-2-yl)piperazin-1-yl)methyl)-1-(oxetan-2-ylmethyl)-1H-thieno[2,3-d]imidazole-5-carboxylic acid]"
> 8.00,> 8.00,"CC1(c2ccc(C#N)cc2F)Oc2cccc(C3CCN(Cc4nc5sc(C(=O)O)cc5n4C[C@@H]4CCO4)CC3)c2O1 (stereo partly drawn) [Compound 5, 2-((4-(2-(4-cyano-2-fluorophenyl)-2-methylbenzo[d][1,3]dioxol-4-yl)piperidin-1-yl)methyl)-1-(((S)-oxetan-2-yl)methyl)-1H-thieno[2,3-d]imidazole-5-carboxylic acid]"
> 8.00,> 8.00,"N#Cc1ccc(COc2cccc(C3CCN(Cc4nc5sc(C(=O)O)cc5n4C[C@@H]4CCO4)CC3)n2)c(F)c1 [Trifluoroacetate salt of compound 1, (S)-2-((4-(6-((4-cyano-2-fluorobenzyl)oxy)pyridin-2-yl)piperidin-1-yl)methyl)-1-(oxetan-2-ylmethyl)-1H-thieno[2,3-d]imidazole-5-carboxylic acid]"
> 8.00,> 8.00,"CC1(c2ccc(Cl)cn2)Oc2cccc(C3CCN(Cc4nc5sc(C(=O)O)cc5n4C[C@@H]4CCO4)CC3)c2O1 (stereo partly drawn) [Compound 24, 2-((4-(2-(5-chloropyridin-2-yl)-2-methylbenzo[d][1,3]dioxol-4-yl)piperidin-1-yl)methyl)-1-(((S)-oxetan-2-yl)methyl)-1H-thieno[2,3-d]imidazole-5-carboxylic acid]"
> 8.00,> 8.00,"C[C@H]1CN(c2cccc(OCc3ccc(C#N)cc3F)n2)CCN1Cc1nc2sc(C(=O)O)cc2n1C[C@@H]1CCO1 [Trifluoroacetate salt of compound 3, 2-(((S)-4-(6-((4-cyano-2-fluorobenzyl)oxy)pyridin-2-yl)-2-methylpiperazin-1-yl)methyl)-1-(((S)-oxetan-2-yl)methyl)-1H-thieno[2,3-d]imidazole-5-carboxylic acid]"
> 8.00,> 8.00,"CC1(c2ccc(Cl)cc2F)Oc2cccc(C3CCN(Cc4nc5sc(C(=O)O)cc5n4C[C@@H]4CCO4)CC3)c2O1 (stereo partly drawn) [Compound 4, 2-((4-(2-(4-chloro-2-fluorophenyl)-2-methylbenzo[d][1,3]dioxol-4-yl)piperidin-1-yl)methyl)-1-(((S)-oxetan-2-yl)methyl)-1H-thieno[2,3-d]imidazole-5-carboxylic acid]"
> 8.00,> 8.00,"CC1(c2ccc(Cl)cc2F)Oc2cccc(-c3ccc(Cc4nc5sc(C(=O)O)cc5n4C[C@@H]4CCO4)cc3)c2O1 (stereo partly drawn) [Compound 11, 2-(4-(2-(4-chloro-2-fluorophenyl)-2-methylbenzo[d][1,3]dioxol-4-yl)benzyl)-1-(((S)-oxetan-2-yl)methyl)-1H-thieno[2,3-d]imidazole-5-carboxylic acid]"
> 8.00,> 8.00,"N#Cc1ccc(COc2cccc(-c3ccc(Cc4nc5sc(C(=O)O)cc5n4C[C@@H]4CCO4)cc3)n2)c(F)c1 [Compound 7, (S)-2-(4-(6-((4-cyano-2-fluorobenzyl)oxy)pyridin-2-yl)benzyl)-1-(oxetan-2-ylmethyl)-1H-thieno[2,3-d]imidazole-5-carboxylic acid]"
> 8.00,> 8.00,"N#Cc1ccc(COc2nc(-c3cc(F)c(Cc4nc5sc(C(=O)O)cc5n4C[C@@H]4CCO4)cc3F)ccc2F)c(F)c1 [Compound 22, (S)-2-(4-(6-((4-cyano-2-fluorobenzyl)oxy)-5-fluoropyridin-2-yl)-2,5-difluorobenzyl)-1-(oxetan-2-ylmethyl)-1H-thieno[2,3-d]imidazole-5-carboxylic acid]"
> 8.00,> 8.00,"N#Cc1ccc(COc2nc(-c3ccc(Cc4nc5sc(C(=O)O)cc5n4C[C@@H]4CCO4)c(F)c3)ccc2F)c(F)c1 [Compound 18, (S)-2-(4-(6-((4-cyano-2-fluorobenzyl)oxy)-5-fluoropyridin-2-yl)-2-fluorobenzyl)-1-(oxetan-2-ylmethyl)-1H-thieno[2,3-d]imidazole-5-carboxylic acid]"
> 8.00,> 8.00,"N#Cc1ccc(COc2ncccc2C2CCN(Cc3nc4sc(C(=O)O)cc4n3C[C@@H]3CCO3)CC2)c(F)c1 [Compound 15, (S)-2-((4-(2-((4-cyano-2-fluorobenzyl)oxy)pyridin-3-yl)piperidin-1-yl)methyl)-1-(oxetan-2-ylmethyl)-1H-thieno[2,3-d]imidazole-5-carboxylic acid]"
> 8.00,> 8.00,"Cc1cc(Cc2nc3sc(C(=O)O)cc3n2C[C@@H]2CCO2)c(F)cc1-c1cccc(OCc2ccc(C#N)cc2F)n1 [Compound 8, (S)-2-(4-(6-((4-cyano-2-fluorobenzyl)oxy)pyridin-2-yl)-2-fluoro-5-methylbenzyl)-1-(oxetan-2-ylmethyl)-1H-thieno[2,3-d]imidazole-5-carboxylic acid]"
> 8.00,> 8.00,"N#Cc1ccc(COc2cccc(C3CCN(Cc4nc5cc(C(=O)O)sc5n4C[C@@H]4CCO4)CC3)n2)c(F)c1 [Compound 16, (S)-2-((4-(6-((4-cyano-2-fluorobenzyl)oxy)pyridin-2-yl)piperidin-1-yl)methyl)-3-(oxetan-2-ylmethyl)-3H-thieno[2,3-d]imidazole-5-carboxylic acid]"
> 8.00,> 8.00,"N#Cc1ccc(COc2cccc(C3=CCN(Cc4nc5sc(C(=O)O)cc5n4C[C@@H]4CCO4)CC3)n2)c(F)c1 [Trifluoroacetate salt of compound 2, (S)-2-((6-((4-cyano-2-fluorobenzyl)oxy)-3′,6′-dihydro-[2,4′-bipyridin]-1′(2′H)-yl)methyl)-1-(oxetan-2-ylmethyl)-1H-thieno[2,3-d]imidazole-5-carboxylic acid]"
> 8.00,> 8.00,"N#Cc1ccc(COc2cccc(-c3cnn(Cc4nc5sc(C(=O)O)cc5n4C[C@@H]4CCO4)c(=O)c3)n2)c(F)c1 [Compound 9, (S)-2-((4-(6-((4-cyano-2-fluorobenzyl)oxy)pyridin-2-yl)-6-oxopyridazin-1(6H)-yl)methyl)-1-(oxetan-2-ylmethyl)-1H-thieno[2,3-d]imidazole-5-carboxylic acid]"
> 8.00,> 8.00,"N#Cc1ccc(COc2cccc(-c3cc(F)c(Cc4nc5sc(C(=O)O)cc5n4C[C@@H]4CCO4)cc3F)n2)c(F)c1 [Compound 21, (S)-2-(4-(6-((4-cyano-2-fluorobenzyl)oxy)pyridin-2-yl)-2,5-difluorobenzyl)-1-(oxetan-2-ylmethyl)-1H-thieno[2,3-d]imidazole-5-carboxylic acid]"

# Source: patent publication US20240124470A1, “FIVE-MEMBERED RING DERIVATIVE AND MEDICAL USE THEREOF” (SICHUAN HAISCO PHARMACEUTICAL CO., LTD., priority 2020, published 2024)
